Key:
Type in all cases: physicochemical
[1] = Maximum absorption wavelength and absorbance ratio of film formed from near-infrared absorption composition; settings: film on glass
Procedure: A near-infrared absorption composition was prepared by mixing according to the following composition.
Each composition was applied to a glass substrate (1737 manufactured by Corning Inc.) using a spin coater, and a heating treatment was performed thereon for 120 seconds using a hot plate at 120° C.
(§1) A maximum absorption wavelength of each film and an absorbance ratio as a value obtained by dividing an absorbance at a wavelength of 555 nm by an absorbance at the maximum absorption wavelength were measured using a spectrophotometer U-4100 (manufactured by Hitachi High-Technologies Corporation).

[2] = Solubility of compound to propylene glycol monomethyl ether acetate (PGMEA); settings: PGMEA at 25° C.
Procedure: The solubility of each compound to propylene glycol monomethyl ether acetate (PGMEA) at 25° C. was evaluated based on the following standards.
A: The solubility of the compound to PGMEA at 25° C. is 2 mass % or greater.

[3] = Near-infrared shieldability evaluation of cured film; settings: cured film 1.0 μm, Resin 1, transmittance at 785 nm
Procedure: (§2) A near-infrared absorption composition was prepared by mixing according to the following composition. The solid content of the composition was 31 mass %, and the content of the near-infrared absorption substance with respect to the total solid content of the composition was 7.5 mass %.
(§3) Each composition was applied to a glass substrate (1737 manufactured by Corning Inc.) using a spin coater such that a film thickness after drying was 1.0 μm, and a heating treatment (pre-baking) was performed thereon for 120 seconds using a hot plate at 100° C.
(§4) Next, entire surface exposure was performed at 500 mJ/cm2 using an i-ray stepper exposure device FPA-3000i5+(manufactured by Canon Inc.). Next, paddle development was performed for 60 seconds at 23° C. using a developing machine (CD-2060, manufactured by FUJIFILM Electronics Materials Co., Ltd.), and a rinsing treatment was performed with pure water. Then, spray drying was performed thereon. Using a hot plate at 200° C., a heating treatment (post-baking) was performed for 300 seconds to obtain a cured film.
The transmittance of each cured film at the maximum absorption wavelength was measured using a spectrophotometer U-4100 (manufactured by Hitachi High-Technologies Corporation). The near-infrared shieldability was evaluated based on the following standards.
A: Transmittance at 785 nm≦10%
D: 40%<Transmittance at 785 nm

[4] = Visible transparency evaluation of cured film; settings: cured film 1.0 μm, Resin 1, minimum transmittance at 500 to 600 nm
Procedure: as §2, §3, §4
The transmittance of each cured film at a wavelength of 500 to 600 nm was measured using a spectrophotometer U-4100 (manufactured by Hitachi High-Technologies Corporation). The visible transparency was evaluated based on the following standards.
A: 80% 5 Minimum value of transmittance at wavelength of 500 to 600 nm
B: 70%: Minimum value of transmittance at wavelength of 500 to 600 nm<80%
C: 60%: Minimum value of transmittance at wavelength of 500 to 600 nm<70%
D: Minimum value of transmittance at wavelength of 500 to 600 nm<60%

[5] = Maximum absorption wavelength and absorbance ratio of cured film; settings: cured film 1.0 μm, Resin 1
Procedure: as §1, §2, §3, §4

[6] = Resin A (benzyl methacrylate/methyl methacrylate copolymer), 120° C. 120 seconds

| Structure (SMILES) | Absorbance Ratio (555 nm/λmax) ([1]; Resin A) | Maximum Absorption Wavelength [1, 6] | Solubility [2] | Solubility (in words) [2] | Near-Infrared Shieldability [3] | Visible Transparency [4] | Absorbance Ratio (555 nm/λmax) [5] | Maximum Absorption Wavelength [5] | Absorbance Ratio (555 nm/λmax) ([1]; Resin B (polycaprolactone)) | Maximum Absorption Wavelength ([1]; Resin B (polycaprolactone)) |
| --- | --- | --- | --- | --- | --- | --- | --- | --- | --- | --- |
| CCCCCCCCOc1ccc(-c2c3/c(=C(\C#N)c4nc(C)cc(C)n4)n(B(c4ccccc4)c4ccccc4)c(-c4ccc(OCCCCCCCC)cc4)c3/c(=C(\C#N)c3nc(C)cc(C)n3)n2B(c2ccccc2)c2ccccc2)cc1 [Compound A-12] | 0.10 | 763 nm | B (The solubility of the compound to PGMEA at 25 °C is 0.5 mass % to less than 2 mass %.) | excellent solubility | B (10%<Transmittance at 785 nm≦25%) | B (70%: Minimum value of transmittance at wavelength of 500 to 600 nm<80%) | 0.10 | 762 nm |  |  |
| CCCCCCCCOc1ccc(-c2c3/c(=C(\C#N)c4cc5cc(C(C)(C)C)ccc5cn4)n(B(c4ccccc4)c4ccccc4)c(-c4ccc(OCCCCCCCC)cc4)c3/c(=C(\C#N)c3cc4cc(C(C)(C)C)ccc4cn3)n2B(c2ccccc2)c2ccccc2)cc1 [Compound A-100] | 0.11 | 860 nm | C (The solubility of the compound to PGMEA at 25 °C is less than 0.5 mass %.) |  | D (40%<Transmittance at 785 nm) | B (70%: Minimum value of transmittance at wavelength of 500 to 600 nm<80%) | 0.12 | 855 nm | 0.11 | 863 nm |
| COB(OC)n1c(-c2ccccc2-c2ccccc2)c2/c(=C(\C#N)c3nc4ccc(Cl)cc4o3)n(B(OC)OC)c(-c3ccccc3-c3ccccc3)c2/c1=C(\C#N)c1nc2ccc(Cl)cc2o1 [Compound D-5] | 0.14 | 790 nm |  |  | B (10%<Transmittance at 785 nm≦25%) | C (60%: Minimum value of transmittance at wavelength of 500 to 600 nm<70%) | 0.15 | 780 nm |  |  |

From US20170351014A1, “NEAR-INFRARED ABSORPTION COMPOSITION, CURED FILM, NEAR-INFRARED ABSORPTION FILTER, SOLID-STATE IMAGING DEVICE, AND INFRARED SENSOR” (FUJIFILM Corporation, priority 2015, published 2017)
